Measurements taken from PMC8069289 (Molecules, 2021).
Where “and” joins values, the source holds several entries; their conditions need not be identical. Equal values may be shown once.

Legend:
Drosophila melanogaster [1] = experiment: Genotoxicity, wing spot test (SMART); conditions: H2O2 0.15 M, positive control
Experimental: The wing spot test was performed to evaluate genotoxicity assays following the standard procedure [14]. Briefly, trans-heterozygous larvae for mwh and flr^3 genes were obtained by crossing four day-old virgin flr^3 females with mwh males in a 2:1 ratio. Four days after fertilization, females were allowed to lay eggs in fresh yeast medium (25 g yeast and 4 mL sterile distilled water) for 8 h in order to obtain synchronized larvae. After 72 h, larvae were collected, washed with distilled water, and clustered in groups of 100 individuals. […] Adult flies were collected and stored in 70% ethanol until the wings were removed and mounted on slides using Faure’s solution. Mutant spots were assessed in both dorsal and ventral surfaces of the wings in a bright light microscope at 400× magnification. The frequencies of each type of mutant clone per wing (single, large or twin spot) were compared with the concurrent negative control [43]. All inconclusive and positive results (p > 0.05) were analysed with the nonparametric U-test of Mann, Whitney and Wilcoxon (α = β = 0.05).

Drosophila melanogaster [2] = experiment: Antitoxicity assay, combined treatment with 0.15 M H2O2; conditions: 0.15 M hydrogen peroxide alone, positive toxicant control concurrent to each test substance
Experimental: Toxicity was assayed according to our standard protocols. CRB and SFRB were tested at five concentrations: 1, 4, 8.12, 32.5 and 130 mg/mL and 0.16, 0.625, 1.25, 5 and 20 mg/mL, respectively. […] Tested groups consisted of larvae fed with Drosophila Instant Medium (Formula 4–24, Carolina Biological Supply, Burlington, NC, USA) supplemented with the assessed compounds concentrations. Emerging adults of all groups were counted and toxicity was determined as the percentage of hatched individuals in each treatment compared with the negative control.

OO [H2O2, hydrogen peroxide, reference compound]
Twin Spots m = 5 (Drosophila melanogaster [1]): 0 clones per wing | Large Simple Spots (>2 Cells) m = 5 (Drosophila melanogaster [1]; No. of spots in parentheses): 0.05 (2) clones per wing | Small Single Spots (1–2 Cells) m = 2 (Drosophila melanogaster [1]; No. of spots in parentheses): 0.375 (15) clones per wing | Total Spots m = 2 (Drosophila melanogaster [1]; No. of spots in parentheses): 0.425 (17) clones per wing | Survival (%) (Drosophila melanogaster [2]): 60% and 38.46% and 58%
